Measurements as given in the supplement of paper PMC4862054.

How the values were obtained:
Experiment in all cases: normalised response (% of control), CellTox Green; higher = less cell death (100 = DMSO, 0 = benzethonium chloride kill control)
Conditions in all cases: incubation time: 72 h
HCC1599 = tested on: HCC1599
Summary of the method: (§1)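 After 72 h with compound in 384-well plates, breast cancer cell lines seeded as 20 µl suspension were read for CellTox Green fluorescence at 485/520 nm. CellTiter-Glo luminescence was then read after 10 min at room temperature. Compound was present at 5 concentrations in 10-fold steps over a 10,000-fold range set per compound, and plates were normalised to 0.1 % DMSO (100) and a positive kill control (0). Values are normalised signals, each at a single concentration.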

MCF-10A = tested on: MCF-10A
Summary of the method: as §1

MDA-MB-436 = tested on: MDA-MB-436
Summary of the method: as §1

Hs578T = tested on: Hs578T
Summary of the method: as §1

MDA-MB-468 = tested on: MDA-MB-468
Summary of the method: as §1

HDQ-P1 = tested on: HDQ-P1
Summary of the method: as §1

CAL-148 = tested on: CAL-148
Summary of the method: as §1

MDA-MB-231 = tested on: MDA-MB-231
Summary of the method: as §1

MDA-MB-453 = tested on: MDA-MB-453
Summary of the method: as §1

MFM-223 = tested on: MFM-223
Summary of the method: as §1

HCC1143 = tested on: HCC1143
Summary of the method: as §1

CAL-85-1 = tested on: CAL-85-1
Summary of the method: as §1

CAL-120 = tested on: CAL-120
Summary of the method: as §1

BT-549 = tested on: BT-549
Summary of the method: as §1

BT-474 = tested on: BT-474
Summary of the method: as §1

DU-4475 = tested on: DU-4475
Summary of the method: as §1

CAL-51 = tested on: CAL-51
Summary of the method: as §1

HCC1937 = tested on: HCC1937
Summary of the method: as §1

Row | Structure (SMILES) | normalised response (HCC1599) [%] | normalised response (MCF-10A) [%] | normalised response (MDA-MB-436) [%] | normalised response (Hs578T) [%] | normalised response (MDA-MB-468) [%] | normalised response (HDQ-P1) [%] | normalised response (CAL-148) [%] | normalised response (MDA-MB-231) [%] | normalised response (MDA-MB-453) [%] | normalised response (MFM-223) [%] | normalised response (HCC1143) [%] | normalised response (CAL-85-1) [%] | normalised response (CAL-120) [%] | normalised response (BT-549) [%] | normalised response (BT-474) [%] | normalised response (DU-4475) [%] | normalised response (CAL-51) [%] | normalised response (HCC1937) [%]
1 | COc1cc(OC2CCN(C)CC2)ccc1Nc1ncc2c(n1)n(C1CCCC1)c(=O)n2C [AZ 3146] (10000 nM) | 53.3 | 71 | 47.3 | 98.7 | 75.5 | 86.1 | 60.4 | 81.8 | 105 | 104 | 86.7 | 82.7 | 94.6 | 105 | 70.2 | 90.2 | 27.1 | -6.06
2 | Oc1ccc2c(c1)CC[C@H](c1ccccc1)[C@@H]2c1ccc(OCCN2CCCC2)cc1 [Lasofoxifene] (1000 nM) | 111 | 67.1 | 109 | 68.7 | 178 | 86.1 | 103 | 119 | 104 | 95.5 | 112 | 69.3 | 99.7 | 118 | 99.8 | 102 | 105 | 72.2
3 | Cc1ccc(NC(=O)c2ccc(CN3CCN(C)CC3)cc2)cc1Nc1nc(-c2cccnc2)cs1 [Masitinib] (1000 nM) | 101 | 103 | 68.7 | 97.8 | 177 | 89.1 | 97.3 | 114 | 102 | 89.7 | 99.5 | 98.9 | 99.2 | 110 | 102 | 100 | 103 | 113
4 | NC(=O)c1ccc(I)c([N+](=O)[O-])c1 [Iniparib] (1000 nM) | 89 | 81.6 | 93.9 | 56.3 | 125 | 103 | 82.5 | 98.8 | 88.2 | 96.7 | 101 | 101 | 93.3 | 121 | 94.6 | 95.2 | 90.7 | 63.7
5 | Cc1[nH]c2ccccc2c1CCNCc1ccc(/C=C/C(=O)NO)cc1 [Panobinostat] (1000 nM) | 53.1 | 34.9 | 86.6 | -12.8 | -0.17 | 39.2 | 4.38 | -36.7 | 75.5 | 32.5 | 47.3 | -26 | -30.8 | 69.6 | 19.9 | 68.2 | -9.56 | -17.6
6 | O=C(/C=C/c1cccc(S(=O)(=O)Nc2ccccc2)c1)NO [Belinostat] (1000 nM) | 86.1 | 70 | 79.3 | 77.3 | 97.7 | 103 | 66.4 | 22.3 | 99.5 | 78.5 | 100 | 51.1 | 70.4 | 129 | 65.2 | 75.8 | 50.8 | 117
7 | c1ccc2c(CCNc3ccc(Nc4ccncc4)cc3)c[nH]c2c1 [Serdemetan] (10000 nM) | 82.8 | 89.8 | 99.5 | 118 | 124 | 88.7 | 26 | 46.1 | 95.2 | 38.8 | 89.7 | 94 | 88.8 | 86.7 | 56.7 | 68.3 | 69.5 | 102
8 | CO[C@H]1C[C@@H]2CC[C@@H](C)[C@@](O)(O2)C(=O)C(=O)N2CCCC[C@H]2C(=O)O[C@H]([C@H](C)C[C@@H]2CC[C@@H](OP(C)(C)=O)[C@H](OC)C2)CC(=O)[C@H](C)/C=C(\C)[C@@H](O)[C@@H](OC)C(=O)[C@H](C)C[C@H](C)/C=C/C=C/C=C/1C [Ridaforolimus] (100 nM) | 89.3 | 97.3 | 53.1 | 116 | 196 | 70.1 | 85.5 | 51.6 | 104 | 102 | 121 | 92.7 | 106 | 125 | 100 | 100 | 102 | 103
9 | COCC1(CO)C(=O)C2CCN1CC2 (configuration not stated) [Prima-1 Met] (1000 nM) | 109 | 101 | 71 | 108 | 103 | 101 | 71.1 | 98.3 | 107 | 89.9 | 114 | 102 | 99.5 | 112 | 104 | 104 | 111 | 120
10 | COc1cc2ncnc(Nc3ccc(F)c(Cl)c3)c2cc1OCCCN1CCOCC1 [Gefitinib] (10000 nM) | 96.9 | 82.9 | 98.4 | 102 | 133 | 94.9 | 48.3 | 68.6 | 79 | 104 | 113 | 45.8 | 95.4 | 114 | 17.4 | 96.9 | 104 | 98.2
11 | O=C(/C=C/c1cccc(S(=O)(=O)Nc2ccccc2)c1)NO [Belinostat] (10000 nM) | 93.8 | 54.6 | 112 | 37.3 | 43.3 | 76.1 | 26.6 | -5.71 | 88.7 | 62.1 | 79.7 | -19.3 | -14 | 103 | 21.2 | 76 | -15.2 | 80.3
12 | N#Cc1ccc(COC[C@H]2O[C@@H](n3c(NCc4ccc(Cl)c(Cl)c4)nc4c(N)ncnc43)[C@H](O)[C@@H]2O)cc1 (1000 nM) | 102 | 92.3 | 96.5 | 103 | 143 | 106 | 107 | 114 | 112 | 104 | 115 | 97.6 | 96.4 | 123 | 100 | 103 | 119 | 90.4
13 | COc1cc2ncnc(Nc3ccc(F)c(Cl)c3)c2cc1OCCCN1CCOCC1 [Gefitinib] (1000 nM) | 97.8 | 99.2 | 91.5 | 95.9 | 125 | 84.8 | 89.8 | 101 | 98.3 | 65.4 | 83.2 | 79.5 | 100 | 123 | 91 | 101 | 108 | 123
14 | COCC[n+]1c2c(n(Cc3cnccn3)c1C)C(=O)c1ccccc1C2=O [YM155] (1000 nM) | 51.1 | -47.8 | -1.05 | 92.9 | -55.5 | -26.1 | -7.66 | -31.1 | 42.2 | 55.1 | 49.3 | -94.7 | -14.7 | 14.8 | -1.55 | 77 | 4.79 | 9.52
15 | O=C(Nc1ccncc1)C(=O)c1cn(Cc2ccc(Cl)cc2)c2ccccc12 [Indibulin] (1000 nM) | 104 | 87.2 | 80.4 | 94.6 | 91.5 | 107 | 96.3 | 51.6 | 106 | 71.8 | 93.6 | 48.8 | 89.4 | 117 | 92.1 | 101 | 40.5 | 68.1
16 | O=C(Nc1cccnc1)N1CCC(Cc2cccc(Oc3ccc(C(F)(F)F)cn3)c2)CC1 [PF-3845] (1000 nM) | 108 | 115 | 108 | 115 | 132 | 70.8 | 107 | 116 | 108 | 102 | 97.7 | 106 | 106 | 107 | 102 | 108 | 117 | 124
17 | O=C(Nc1ccncc1)C(=O)c1cn(Cc2ccc(Cl)cc2)c2ccccc12 [Indibulin] (10000 nM) | 105 | 84 | 93.6 | 76.3 | 63.6 | 69.6 | 65.3 | 46.3 | 105 | 72.9 | 121 | 16.7 | 85.8 | 95.4 | 81.4 | 106 | -2.59 | 99
18 | COc1cc2/c(=N/c3ccc(Br)cc3F)nc[nH]c2cc1OCC1CCN(C)CC1 [Vandetanib] (1000 nM) | 106 | 84 | 84.6 | 105 | 128 | 40.1 | 99.8 | 80.5 | 96.7 | 95 | 85.7 | 117 | 56.3 | 114 | 96.7 | 96.9 | 96.5 | 84.1
19 | CN(C)c1nc(N(C)C)nc(N(C)C)n1 [Altretamine] (1000 nM) | 90.7 | 78 | 80.3 | 98.1 | 140 | 69.2 | 101 | 110 | 105 | 99.7 | 113 | 102 | 104 | 107 | 100 | 103 | 111 | 118
